# Experimental data: the supplement of paper PMC10307832
# How the values were obtained:
# Test in all cases: relative viability (nuclei count vs DMSO), 5 days (fraction); higher = more cells survive
# [1] = test system: UMC-11
# In short: (§1)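 Medians of duplicate plates are given as relative viability. That measure is the nuclei count in treated wells divided by the count in vehicle wells. Counts were taken on 4× images of lung cancer cell lines in 1536-well plates, 5 days after pin-tool dosing the day after seeding with one drug alone or a fixed anchor-drug dose plus five library-drug doses (not always all listed) in √10 steps.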
# [2] = test system: HCC-15
# In short: as §1
# [3] = test system: NCI-H1623
# In short: as §1
# [4] = test system: HCC-44
# In short: as §1
# [5] = test system: NCI-H1395
# In short: as §1
# [6] = test system: NCI-H1755
# In short: as §1
# [7] = test system: NCI-H1648
# In short: as §1
# [8] = test system: EKVX
# In short: as §1
# [9] = test system: LCLC-103H
# In short: as §1
compound,measurement,setting,value
Nc1ccn([C@@H]2O[C@H](CO)[C@@H](O)[C@@H]2O)c(=O)n1 [Cytarabine] + Cc1cc(Nc2cc(N3CCN(C)CC3)nc(Sc3ccc(NC(=O)C4CC4)cc3)n2)n[nH]1 [Tozasertib] (partner 0.1 µM),relative viability,[1]; first compound 0.005 µM,0.261
same,relative viability,[1]; first compound 0.01581 µM,0.219
same,relative viability,[1]; first compound 0.05 µM,0.222
same,relative viability,[1]; first compound 0.1581 µM,0.231
same,relative viability,[1]; first compound 0.5 µM,0.2
same,relative viability,[2]; first compound 0.005 µM,0.413
same,relative viability,[2]; first compound 0.01581 µM,0.57
same,relative viability,[2]; first compound 0.05 µM,0.577
same,relative viability,[2]; first compound 0.1581 µM,0.461
same,relative viability,[2]; first compound 0.5 µM,0.354
same,relative viability,[3]; first compound 0.005 µM,0.325
same,relative viability,[3]; first compound 0.01581 µM,0.264
same,relative viability,[3]; first compound 0.05 µM,0.284
same,relative viability,[3]; first compound 0.1581 µM,0.199
same,relative viability,[3]; first compound 0.5 µM,0.178
same,relative viability,[4]; first compound 0.005 µM,0.925
same,relative viability,[4]; first compound 0.01581 µM,0.928
same,relative viability,[4]; first compound 0.05 µM,0.418
same,relative viability,[4]; first compound 0.1581 µM,0.379
same,relative viability,[4]; first compound 0.5 µM,0.255
same,relative viability,[5]; first compound 0.005 µM,0.703
same,relative viability,[5]; first compound 0.01581 µM,0.633
same,relative viability,[5]; first compound 0.05 µM,0.434
same,relative viability,[5]; first compound 0.1581 µM,0.447
same,relative viability,[5]; first compound 0.5 µM,0.388
same,relative viability,[6]; first compound 0.005 µM,0.492
same,relative viability,[6]; first compound 0.01581 µM,0.452
same,relative viability,[6]; first compound 0.05 µM,0.421
same,relative viability,[6]; first compound 0.1581 µM,0.273
same,relative viability,[6]; first compound 0.5 µM,0.344
same,relative viability,[7]; first compound 0.005 µM,0.456
same,relative viability,[7]; first compound 0.01581 µM,0.517
same,relative viability,[7]; first compound 0.05 µM,0.484
same,relative viability,[7]; first compound 0.1581 µM,0.265
same,relative viability,[7]; first compound 0.5 µM,0.32
same,relative viability,[8]; first compound 0.005 µM,0.326
same,relative viability,[8]; first compound 0.01581 µM,0.35
same,relative viability,[8]; first compound 0.05 µM,0.333
same,relative viability,[8]; first compound 0.1581 µM,0.272
same,relative viability,[8]; first compound 0.5 µM,0.19
same,relative viability,[9]; first compound 0.005 µM,0.568
same,relative viability,[9]; first compound 0.01581 µM,0.487
same,relative viability,[9]; first compound 0.05 µM,0.413
same,relative viability,[9]; first compound 0.1581 µM,0.436
same,relative viability,[9]; first compound 0.5 µM,0.373
CC(=O)O[C@@]12CO[C@@H]1C[C@H](O)[C@@]1(C)C(=O)[C@H](O)C3=C(C)[C@@H](OC(=O)[C@H](O)[C@@H](NC(=O)OC(C)(C)C)c4ccccc4)C[C@@](O)([C@@H](OC(=O)c4ccccc4)[C@H]21)C3(C)C [Docetaxel] + COc1cccc2cc(-c3nc([C@H]4CC[C@H](C(=O)O)CC4)n4ncnc(N)c34)[nH]c12 [OSI-027] (partner 0.5 µM),relative viability,[1]; first compound 0.0002 µM,0.433
same,relative viability,[1]; first compound 0.000632 µM,0.469
same,relative viability,[1]; first compound 0.002 µM,0.231
same,relative viability,[1]; first compound 0.006325 µM,0.244
same,relative viability,[1]; first compound 0.02 µM,0.175
same,relative viability,[2]; first compound 0.0002 µM,0.542
same,relative viability,[2]; first compound 0.000632 µM,0.246
same,relative viability,[2]; first compound 0.002 µM,0.205
same,relative viability,[2]; first compound 0.006325 µM,0.219
same,relative viability,[2]; first compound 0.02 µM,0.133
same,relative viability,[3]; first compound 0.0002 µM,0.391
same,relative viability,[3]; first compound 0.000632 µM,0.438
same,relative viability,[3]; first compound 0.002 µM,0.339
same,relative viability,[3]; first compound 0.006325 µM,0.335
same,relative viability,[3]; first compound 0.02 µM,0.298
same,relative viability,[4]; first compound 0.0002 µM,0.533
same,relative viability,[4]; first compound 0.000632 µM,0.591
same,relative viability,[4]; first compound 0.002 µM,0.269
same,relative viability,[4]; first compound 0.006325 µM,0.294
same,relative viability,[4]; first compound 0.02 µM,0.16
same,relative viability,[5]; first compound 0.0002 µM,0.609
same,relative viability,[5]; first compound 0.000632 µM,0.657
same,relative viability,[5]; first compound 0.002 µM,0.538
same,relative viability,[5]; first compound 0.006325 µM,0.373
same,relative viability,[5]; first compound 0.02 µM,0.272
same,relative viability,[6]; first compound 0.0002 µM,0.677
same,relative viability,[6]; first compound 0.000632 µM,0.554
same,relative viability,[6]; first compound 0.002 µM,0.402
same,relative viability,[6]; first compound 0.006325 µM,0.39
same,relative viability,[6]; first compound 0.02 µM,0.353
same,relative viability,[7]; first compound 0.0002 µM,0.28
same,relative viability,[7]; first compound 0.000632 µM,0.267
same,relative viability,[7]; first compound 0.002 µM,0.232
same,relative viability,[7]; first compound 0.006325 µM,0.218
same,relative viability,[7]; first compound 0.02 µM,0.248
same,relative viability,[8]; first compound 0.0002 µM,0.672
same,relative viability,[8]; first compound 0.000632 µM,0.607
same,relative viability,[8]; first compound 0.002 µM,0.35
same,relative viability,[8]; first compound 0.006325 µM,0.272
same,relative viability,[8]; first compound 0.02 µM,0.128
same,relative viability,[9]; first compound 0.0002 µM,0.394
same,relative viability,[9]; first compound 0.000632 µM,0.528
same,relative viability,[9]; first compound 0.002 µM,0.343
same,relative viability,[9]; first compound 0.006325 µM,0.414
same,relative viability,[9]; first compound 0.02 µM,0.264
